Measured values from PubChem BioAssay (NCI).
Where “and” joins values, the source holds several entries; their conditions need not be identical. Equal values may be shown once.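 Method: 48-hour compound exposure of cells in 96-well plates, five concentrations, linear interpolation of endpoints. The concentration for 50% growth inhibition is given as GI50. TGI denotes the concentration required for complete inhibition of growth.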

Experiments:
Assay in all cases: NCI-60 cell line screen, 48 h
CAKI-1 renal = tested on: CAKI-1 renal
RXF 393 renal = tested on: RXF 393 renal
T-47D breast = tested on: T-47D breast
SF-295 CNS = tested on: SF-295 CNS
KM12 colon = tested on: KM12 colon
SF-539 CNS = tested on: SF-539 CNS
OVCAR-5 ovarian = tested on: OVCAR-5 ovarian
HCT-116 colon = tested on: HCT-116 colon
OVCAR-3 ovarian = tested on: OVCAR-3 ovarian
SK-OV-3 ovarian = tested on: SK-OV-3 ovarian

Row | SMILES | TGI (CAKI-1 renal) | TGI (RXF 393 renal) | TGI (T-47D breast) | TGI (SF-295 CNS) | TGI (KM12 colon) | TGI (SF-539 CNS) | TGI (OVCAR-5 ovarian) | TGI (HCT-116 colon) | TGI (OVCAR-3 ovarian) | TGI (SK-OV-3 ovarian) | GI50 (CAKI-1 renal) | GI50 (RXF 393 renal) | GI50 (T-47D breast) | GI50 (SF-295 CNS) | GI50 (KM12 colon) | GI50 (SF-539 CNS) | GI50 (OVCAR-5 ovarian) | GI50 (HCT-116 colon) | GI50 (OVCAR-3 ovarian) | GI50 (SK-OV-3 ovarian)
1 | Cc1cc(N(CCC#N)S(=O)(=O)c2ccccc2)ccc1C=Nc1ccc(C(=O)O)cc1 | 5.73 µM | 6.72 µM | > 100 µM | 44.8 µM | 42.6 µM | 30.7 µM | 38.7 µM | 14.7 µM | 21.5 µM | 48.9 µM | – | – | – | – | – | – | – | – | – | –
2 | Cc1c(C(=O)Nc2ccc(N3C[C@@H](C)O[C@@H](C)C3)nc2)cccc1-c1ccc(OC(F)(F)F)cc1 | 26.3 µM and 23.3 µM | 29.2 µM and 32.1 µM | 25.2 µM and 17.6 µM | 26.5 µM and 26.1 µM | 59 µM and 50.4 µM | 22 µM and 27.3 µM | 42.7 µM and 48.9 µM | > 100 µM | 24 µM and 24.2 µM | 30 µM and 34.5 µM | 3.86 µM and 3.89 µM | 12.3 µM and 13.7 µM | 2.69 µM and 2.41 µM | 5.34 µM and 3.84 µM | 12.7 µM and 9.64 µM | 6.74 µM and 10.5 µM | 15.7 µM and 19.6 µM | 3.4 µM and 3.85 µM | 6.23 µM and 5.13 µM | 11.4 µM and 15.2 µM
3 | CCN1CCN(C(=O)[C@]23CC[C@@H](C)[C@H](C)[C@@H]2C2=CC[C@@H]4[C@@]5(C)CCC(=O)C(C)(C)[C@@H]5CC[C@@]4(C)[C@]2(C)CC3)CC1 | 2.96 µM | 1.74 µM | 3.89 µM | 1.59 µM | 2.22 µM | 1.54 µM | 1.87 µM | 1.57 µM | 2.44 µM | 4.83 µM | 0.946 µM | 0.822 µM | 1.33 µM | 0.82 µM | 1.03 µM | 0.843 µM | 0.907 µM | 0.798 µM | 1.1 µM | 1.51 µM
4 | COc1ccc2c3ccnc(C(F)(F)F)c3n(CCCCN)c2c1 | 21.4 µM | 6.93 µM | 23.8 µM | 22.6 µM | 17.6 µM | 20.2 µM | 22.4 µM | 13.4 µM | 15.3 µM | 25.3 µM | 4.66 µM | 2.3 µM | 6.86 µM | 6.71 µM | 5.1 µM | 6.58 µM | 8.62 µM | 3.84 µM | 3.82 µM | 10.5 µM
5 | CC(C)(C)NCC(O)c1ccccc1Cl (stereo not given) | > 100 µM | > 100 µM | > 100 µM | > 100 µM | > 100 µM | > 100 µM | > 100 µM | > 100 µM | > 100 µM | > 100 µM | > 100 µM | > 100 µM | > 100 µM | > 100 µM | > 100 µM | > 100 µM | > 100 µM | > 100 µM | > 100 µM | > 100 µM
6 | NS(=O)(=O)c1ccc(-n2nc3c(c2-c2cccs2)Cc2ccccc2-3)cc1 | 22.7 µM | 40.7 µM | 41.1 µM | 31.4 µM | 32.2 µM | 25.1 µM | 48 µM | 22.7 µM | 44.4 µM | > 100 µM | 10.1 µM | 17.4 µM | 12.8 µM | 13.8 µM | 13.5 µM | 12.1 µM | 18.5 µM | 7.67 µM | 14.4 µM | 37.7 µM
7 | CC1(C)OCC2OC(n3cnc4c(N)nc(Cl)nc43)C(OS(C)(=O)=O)C2O1 (stereo not given) | > 100 µM | > 100 µM | > 100 µM | > 100 µM | > 100 µM | > 100 µM | > 100 µM | > 100 µM | > 100 µM | > 100 µM | – | – | – | – | – | – | – | – | – | –
8 | CCOC(=O)C1=C(Nc2ccc(OC)cc2)C(N)=NC1=N | > 100 µM | 6.47 µM | > 100 µM | 8.32 µM | > 100 µM | 6.27 µM | > 100 µM | > 100 µM | 6.5 µM | 18.1 µM | 5.84 µM | 1.72 µM | > 100 µM | 2.71 µM | 2.64 µM | 2.15 µM | 5.09 µM | 2.45 µM | 2.49 µM | 2.99 µM
9 | COC(=O)C1=C(C)NC(=S)NC1c1ccc(N(CCCl)CCCl)cc1Cl (stereo not given) | 14.6 µM | > 81.2 µM | > 55.4 µM | > 82.4 µM | > 73.4 µM | > 100 µM | > 100 µM | > 100 µM | > 94 µM | > 100 µM | – | – | – | – | – | – | – | – | – | –
10 | CCC(=O)OCOc1ccc(/C=C2\CCC(CN(C)C)C2=O)cc1 (stereo not given) | 11.5 µM | 9.55 µM | 9 µM | 20.5 µM | 13 µM | 17.3 µM | 31.6 µM | 18.2 µM | 8.29 µM | 29.1 µM | – | – | – | – | – | – | – | – | – | –
11 | O=[N+]([O-])c1ccc2c(c1)C(N1CCN(CCO)CC1)Cc1ccc(F)cc1S2 (stereo not given) | 26.3 µM | 4.73 µM | 37.6 µM | 14.1 µM | 21.4 µM | 22.6 µM | 26.9 µM | 19.7 µM | 54.6 µM | 31 µM | – | – | – | – | – | – | – | – | – | –
12 | Clc1ccc2c(NC3CCC(N4CCCCC4)CC3)ccnc2c1 (stereo not given) | 50.7 µM | 43.7 µM | > 100 µM | 36.8 µM | 51.9 µM | 36.2 µM | > 100 µM | 44.7 µM | 59.2 µM | > 100 µM | – | – | – | – | – | – | – | – | – | –
13 | Cc1ccc2ccccc2c1CSc1nc(N)nc2c1ncn2CC(C)C | > 48.9 µM | > 90.7 µM | > 47.8 µM | > 100 µM | > 100 µM | > 44.8 µM | > 100 µM | > 100 µM | > 100 µM | > 100 µM | – | – | – | – | – | – | – | – | – | –
14 | CC1Cc2c(Cl)ncnc2N(C)c2ccccc21 (stereo not given) | > 100 µM | 6.05 µM | 37.4 µM | 37.4 µM | > 100 µM | 37.2 µM | > 100 µM | 80.3 µM | 20.1 µM | 12.6 µM | 3.39 µM | 2.57 µM | 4.29 µM | 3.28 µM | 3.33 µM | 4.56 µM | 6.02 µM | 3.96 µM | 3.4 µM | 2.37 µM
15 | C[C@]12CC[C@H]3[C@@H](CC[C@]4(O)C[C@@H](O)CC[C@]34C=O)[C@@]1(O)CC[C@@H]2C1=CC(=O)OC1 | 0.61 µM | 0.877 µM | 5.03 µM | 1.74 µM | 6.66 µM | 0.967 µM | 3.57 µM | 0.595 µM | 1.55 µM | 2.79 µM | – | – | – | – | – | – | – | – | – | –
